In one data set the target is T1, human P2X7 (UniProt Q99572).
T1 sequence (Q99572 1-595): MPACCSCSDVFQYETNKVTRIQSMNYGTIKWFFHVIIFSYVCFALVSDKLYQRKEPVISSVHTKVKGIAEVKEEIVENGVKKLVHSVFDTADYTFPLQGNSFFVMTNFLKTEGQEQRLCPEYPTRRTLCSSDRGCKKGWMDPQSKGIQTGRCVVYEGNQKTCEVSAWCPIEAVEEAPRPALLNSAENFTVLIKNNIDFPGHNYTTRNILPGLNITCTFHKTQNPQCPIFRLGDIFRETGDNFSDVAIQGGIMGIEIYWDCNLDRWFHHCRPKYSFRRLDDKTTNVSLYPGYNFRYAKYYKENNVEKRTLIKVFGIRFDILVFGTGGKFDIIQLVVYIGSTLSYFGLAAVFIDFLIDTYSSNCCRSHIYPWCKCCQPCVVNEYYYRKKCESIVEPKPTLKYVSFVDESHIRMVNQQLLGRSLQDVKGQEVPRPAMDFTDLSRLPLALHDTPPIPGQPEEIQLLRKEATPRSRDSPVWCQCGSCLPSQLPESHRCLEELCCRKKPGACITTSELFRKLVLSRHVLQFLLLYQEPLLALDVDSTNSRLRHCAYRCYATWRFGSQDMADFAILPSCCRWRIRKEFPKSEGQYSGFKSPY
Nature of the data set: Intracellular Calcium Flux (FLIPR) Assay. The format is cell-based. How it is done:
Intracellular Calcium Flux (FLIPR) Assay
Compound and Reagent Preparation
Stock solutions of compounds were prepared from powders as a 10 mM DMSO stock solution. These solutions were stored at RT during the two week period of these experiments to prevent freeze-thaw of the DMSO stocks. The DMSO stocks were added to the appropriate assay buffer at a concentration of 10 μM, and then diluted serially to the final concentrations that were tested. No observable precipitate was formed at any time during this process. The aqueous solutions of compounds as well as ATP (Sigma A7699) and BzATP (Sigma B6396) were prepared fresh for each day of experiment.
1321N1 cells stably expressing the full length human P2X7 gene (1321N1-hP2X7) and HEK293 cells stably expressing the full length rat P2X7 gene (HEK293-rP2X7) were obtained from the Roche Cell Culture Facility. 1321N1-hP2X7 cells were grown in Dulbecco's Modified Eagle's Medium (DMEM) high glucose supplemented with 10% FBS and […] G418. HEK293-rP2X7 cells were grown in DMEM/F-12 supplemented with 10% FBS, 1 mM CaCl2, 2 mM MgCl2, 2 mM L-Glutamine and […] G418. Cells were split such that they never became >70% confluent.
Intracellular Calcium Flux (FLIPR)
On the day prior to the experiment, 1321N1-hP2X7 or HEK293-rP2X7 cells were released into suspension with calcium-free PBS+Versene and washed by centrifugation with calcium-free PBS to remove the Versene. Cells were resuspended in growth medium at a density of 2.5×10^5 cells/mL and seeded into black walled, clear bottom 96 well plates (50,000 cells/well) approximately 18 hr prior to intracellular calcium flux experiments.
On the day of the experiment, plates were washed with FLIPR buffer (calcium- and magnesium-free Hank's Balanced Salt Solution (HBSS) supplemented with 10 mM Hepes, 2.5 mM probenecid and 2 mM calcium chloride) using a BIO-TEK 96 channel plate washer and incubated with […] fluo-3 dye at 37° C. for one hr. The dye was then removed by plate washing and the cells were allowed to equilibrate for 20 min at room temperature with antagonist or vehicle (FLIPR buffer). Agonist (100 μM BzATP final concentration for hP2X7; 5 μM BzATP final concentration or rP2X7) was added online with the FLIPR and fluorescence measurements made at 1 sec intervals for 60 sec followed by 3 sec intervals for a further 4 min (5 min total). A final addition of 5 μM ionomycin was made and the maximal BzATP-evoked fluorescence normalized to the maximal ionomycin-evoked fluorescence.
In general terms: Calcium assays in cells follow changes in intracellular calcium, usually with a dye or a luminescent sensor.

By pIC50 is commonly meant the negative decadic logarithm of the IC50, by convention in mol/L. As a reminder, the melting point is the temperature, or range, at which the solid turns liquid. `COc1cc(C)c(Nc2nnc3n2C(c2ccc(F)cc2)CS(=O)(=O)C3)cc1OC` (stereo not shown) [Compound 19, (4,5-Dimethoxy-2-methyl-phenyl)-[5-(4-fluoro-phenyl)-7,7-dioxo-5,6,7,8-tetrahydro-7λ^6-[1,2,4]triazolo[3,4-c][1,4]thiazin-3-yl]-amine] came in with a melting point of 226 to 227 °C. On human P2X7, the negative-log IC50 (pIC50) was found to be 6.96.

`Cc1cc2cnn(CCO)c2cc1Nc1nnc2n1[C@H](c1ccc(F)cc1)COC2` [Compound 39, 2-{6-[(R)-5-(4-Fluoro-phenyl)-5,6-dihydro-8H-[1,2,4]triazolo[3,4-c][1,4]oxazin-3-ylamino]-5-methyl-indazol-1-yl}-ethanol] gave a melting point of 215 to 217 °C. The pIC50 on human P2X7 came out at 7.605.

The compound `Cc1cc(Cl)c(OCCO)cc1Nc1nnc2n1[C@H](c1ccc(F)cc1)COC2` [Compound 21, 2-{2-Chloro-5-[(R)-5-(4-fluoro-phenyl)-5,6-dihydro-8H-[1,2,4]triazolo[3,4-c][1,4]oxazin-3-ylamino]-4-methyl-phenoxy}-ethanol] had a melting point of 161 to 162 °C. Besides, the pIC50 on human P2X7 came out at 7.59.

Turning to `COc1cc(C)c(Nc2nnc3n2C(c2ccc(F)cc2)CSC3)cc1OC` (stereo not shown) [Compound 18, (4,5-Dimethoxy-2-methyl-phenyl)-[5-(4-fluoro-phenyl)-5,6-dihydro-8H-[1,2,4]triazolo[3,4-c][1,4]thiazin-3-yl]-amine], the melting point lay within 165 to 166 °C. In addition, on human P2X7, the pIC50 is listed as 7.58.

With `Cc1ccc(-c2ccnn(C)c2=O)cc1Nc1nnc2n1[C@H](c1ccc(F)cc1)COC2` [Compound 37, 4-{3-[(R)-5-(4-Fluoro-phenyl)-5,6-dihydro-8H-[1,2,4]triazolo[3,4-c][1,4]oxazin-3-ylamino]-4-methyl-phenyl}-2-methyl-2H-pyridazin-3-one], the pIC50 on human P2X7 was 7.865.

As for `CCc1c(Nc2nnc3n2[C@@H](c2ccc(F)cc2)CCC3)ccc2ncccc12` [Compound 9, (5-Ethyl-quinolin-6-yl)-[(R)-5-(4-fluoro-phenyl)-5,6,7,8-tetrahydro-[1,2,4]triazolo[4,3-a]pyridin-3-yl]-amine], the pIC50 on human P2X7 turned out to be 5.17.

(Values after patent publication US8871760B2, “[1,2,4]triazolo[3,4-C][1,4]oxazines as P2X7 modulators” (Roche Palo Alto LLC, priority 2009, dated 2014).)
